Reference: publication PMC3871529, “At a Supra-Physiological Concentration, Human Sexual Hormones Act as Quorum-Sensing Inhibitors” (PLoS ONE, 2013)
Read-outs that look alike come from different tables or passages of the source.

Key:
[1] = test system: A. tumefaciens NT1(pZLR4) traG-lacZ reporter fusion; experiment: QSI activity on A. tumefaciens AHL-bioindicator (traG-lacZ β-galactosidase); format: cell-based, Agrobacterium tumefaciens; conditions: for QSI hit in library screening: second screening: compounds at 5 µg/ml, C8-HSL 10 nM, A. tumefaciens biosensor
Method: Two bacterial QS-signal biosensors were used. Chromobacterium violaceum CV026 [41] was grown in Luria-Bertani modified (LBm) medium, in which the NaCl concentration was 5 g/l instead of 10 g/l. Agrobacterium tumefaciens NT1(pZLR4) was grown in AB minimal medium supplemented with mannitol (0.2%). After supplementation with appropriate AHL, each of the QS-biosensors expresses a reporting activity, which is the production of the pigment violacein in C. violaceum CV026 and that of β-galactosidase from the transcriptional fusion traG::lacZ in A. tumefaciens NT1(pZLR4).
When the screening was performed, the chemical library of the Institut de Chimie des Substances Naturelles (ICSN, Gif-sur-Yvette, France) contained more than 3500 synthetic and natural compounds, which were individually dissolved in dimethylsulfoxide (DMSO) at 1mg/ml and stored in 96 microwell plates. A first screening was performed by mixing biosensor CV026 with the AHL hexanoylhomoserine lactone (C6-HSL) at 0.5 µM and the tested compounds at 50 µg/ml. Final volume was adjusted to 100 µl with a synthetic medium (10% LBm and 0.4% sucrose). After 24 hours of incubation at 30°C, the presence or absence of violacein pigment was quoted by visual reading. […] Final volume was adjusted to 100 µl by the addition of AB minimal medium supplemented with mannitol (0.2%) and TY medium (10%). After 4 hours of incubation at 30°C, β-galactosidase activity was measured in A. tumefaciens cultures as previously described. In the two screenings, 4-nitropyridine-N-oxide (4-NPO) was used as a QSI reference. […]

[2] = test system: Agrobacterium biosensor cells; experiment: Minimal bactericidal concentration (MBC); format: cell-based, Agrobacterium tumefaciens; conditions: 99.9% reduction of 10^5 CFU/ml after 36 h at 30°C
Method: Aside from the effect of QSI on QS regulation, the toxicity of these compounds was tested on bacterial cells by measuring two parameters: the minimal inhibitory concentration (MIC) and minimal bactericidal concentration (MBC). MIC, which is the lowest concentration of QSI (µg/ml) inhibiting any visible culture after 36 h of incubation at 30°C, was estimated by culturing 10^5 CFU/ml of the Agrobacterium biosensor cells in the presence of different concentrations of the QSI. MBC, which is the lowest concentration of QSI (µg/ml) that results in a 99.9% reduction of the initial bacterial population (10^5 CFU/ml) after 36 h of incubation at 30°C in the presence of different concentrations of QSI, was estimated by plating 100 µL of the Agrobacterium cultures on agar LBm plates. After an incubation of 48 h at 30°C, CFU were counted and the MBC values were calculated.

Compound | inhibition at 100 µg/mL ([1]; Agrobacterium tumefaciens, read-out: inhibition (%) at 100 µg/ml) [%] | QSI hit in library screening [1] | MBC ([2]; Agrobacterium, read-out: MBC) [µg/mL] | IC50 ([1]; β-galactosidase activity of Agrobacterium biosensor in presence of AHL (C8-HSL 10 nM), QSI 1.5 to 100 µg/ml) [µg/mL] | MBC [2] [µg/mL]
CN(C)CCc1ccc(O)cc1 [Compound 3499, hordenine] | 19 | hits | > 100 |  | 
3-Hydroxy-13-methyl-6,7,8,9,11,12,13,14,15,17-decahydro-cyclopenta[a] phenanthren-16-one [Compound 729, reference compound] |  | hits |  | 75 | >100
C[C@]12CC[C@@H]3c4ccc(O)cc4CC[C@H]3[C@@H]1C[C@@H](O)[C@@H]2O [Estriol, estriol] |  |  | > 100 |  | 
